Results reported in paper PMC5547389, “Structure-activity relationships and molecular docking studies of chromene and chromene based azo chromophores: A novel series of potent antimicrobial and anticancer agents” (EXCLI Journal, 2017).
≈ marks a conversion by molar mass, not a printed value. Like-named read-outs stand apart in the source and are kept apart here.

Legend:
Assay type in all cases: cell-based
[1] = test system: Syncephalastrum racemosum (RCMB 05922); assay: MIC by serial dilution method
Experimental: (§1) All the newly synthesized compounds described in this report were screened for both antibacterial and antifungal activity via the reported agar diffusion well method (Vanden Berghe and Vlietinck, 1991[62]). The inhibition zones and minimum inhibitory concentrations (MIC) were determined by the serial dilution method (Cappuccino and Sherman, 1999[12]). The antimicrobial activity of the synthesized compounds was tested against a broad panel of microorganisms including two Gram-positive bacteria: Streptococcus pneumoniae (RCMB 010010) and Bacillus subtilis (RCMB 010067), two Gram-negative bacteria: Pseudomonas aeruginosa (RCMB 010043) and Escherichia coli (RCMB 010052), and four fungi: Aspergillus fumigatus (RCMB 02568), Syncephalastrum racemosum (RCMB 05922), Geotricum candidum (RCMB 05097), and Candida albicans (RCMB 05036). Ampicillin, ciprofloxacin, gentamicin and amphotericin B were used as positive control drugs (Atta-ur-Rahman and Thomsen, 2001[7]; Smania et al., 1999[57]). […] While in the case of Gm-ve bacteria, they had weak activity. In addition, certain strains of fungi were sensitive to tested compounds with an IZ range from 12-25 except Candida albicans.

[2] = test system: Aspergillus fumigatus (RCMB 02568); assay: MIC by serial dilution method
Experimental: as §1

[3] = test system: Geotricum candidum (RCMB 05097); assay: MIC by serial dilution method; conditions: read-out: Minimum inhibitory concentration, MIC, G.C
Experimental: as §1

[4] = test system: Syncephalastrum racemosum (RCMB 05922); assay: Well diffusion assay (inhibition zone)
Experimental: (§2) The microorganism inoculums were uniformly spread using sterile cotton swabs on a sterile Petri dish malt extract agar (for fungi) and nutrient agar (for bacteria). One hundred cubic millimeters of each sample was added to each well (10 mm-diameter holes were cut in the agar gel, 20 mm apart from one another). The systems were incubated for 24-48 h at 37 °C (for bacteria) and at 28 °C (for fungi). After incubation, the microorganism growth was observed. Inhibition zones of the bacterial and fungal growth were measured in millimeters. Tests were performed in triplicate (Cappuccino and Sherman, 1999[12]; Vanden Berghe and Vlientinck, 1991[62]).
as §1

[5] = test system: Aspergillus fumigatus (RCMB 02568); assay: Well diffusion assay (inhibition zone)
Experimental: as §2, §1

[6] = test system: Geotricum candidum (RCMB 05097); assay: Well diffusion assay (inhibition zone); conditions: read-out: Inhibition Zone (IZ) diameter, G.C
Experimental: as §2, §1

[7] = test system: Candida albicans (RCMB 05036); assay: Well diffusion assay (inhibition zone); conditions: RCMB05036, 5 mg/mL in DMSO, fungi, read-out: Inhibition Zone (IZ) diameter, C.A
Experimental: as §2, §1

[8] = test system: Human colon carcinoma (HCT-116); assay: Cytotoxic screening
Experimental: (§3) Human colon carcinoma (HCT-116), human hepatocellular carcinoma (HEPG-2), adenocarcinomic human alveolar basal epithelial cell (A-549), and human breast adenocarcinoma (MCF-7) cell lines were obtained from the American Type Culture Collection (ATCC, Rockville, MD). The cells were grown on RPMI-1640 medium supplemented with 10 % inactivated fetal calf serum and 50 µg/ml gentamycin. The cells were maintained at 37 °C in a humidified atmosphere with 5 % CO2 and were subcultured two to three times a week. Potential cytotoxicity of the compounds was evaluated on tumor cells using the method of Gangadevi and Muthumary (2007[21]) (Klancnik et al., 2010[36]). The cells were grown as monolayers in growth RPMI-1640. The monolayers of 104 cells adhered at the bottom of the wells in a 96-well microtiter plate incubated for 24 h at 37 °C in a humidified incubator with 5 % CO2. The monolayers were then washed with sterile phosphate buffered saline (0.01 M pH 7.2) and simultaneously the cells were treated with 100 µL from different dilutions of tested sample in fresh maintenance medium and incubated at 37 °C. A control of untreated cells was made in the absence of tested sample. Positive controls containing doxorubicin were also tested as a reference drug for comparison. Six wells were used for each concentration of the test sample. Every 24 hours an observation under the inverted microscope was made. The number of the surviving cells was determined by staining the cells with crystal violet (Mosmann, 1983[42]; Gangadevi and Muthumary, 2007[21]) followed by cell lysing using 33 % glacial acetic acid and reading the absorbance at 590 nm using microplate reader (SunRise, TECAN, Inc, USA) after well mixing. The absorbance values from untreated cells were considered as 100 % proliferation. The number of viable cells was determined using microplate reader as previously mentioned before and the percentage of […] was calculated as [1-(ODt/ODc)] x 100 % where ODt is the mean optical density of wells treated with the tested sample and ODc is the mean optical density of untreated cells. The relation between surviving cells and drug concentration was plotted to get the survival curve of each tumor cell line after treatment with the specified compound. The 50 % inhibitory concentration (IC50), the concentration required to cause toxic effects in 50 % of intact cells, was estimated from graphic plots.
(§4) The in vitro cytotoxic activity was performed by MTT assay (Mosmann, 1983[42]; Alley et al., 1988[6]) against three human carcinoma cell lines: Human colon carcinoma (HCT-116), human breast adenocarcinoma (MCF-7), and human hepatocellular carcinoma (HEPG-2).

[9] = test system: human breast adenocarcinoma (MCF-7); assay: Cytotoxic screening
Experimental: as §3, §4

[10] = test system: human hepatocellular carcinoma (HEPG-2); assay: Cytotoxic screening; conditions: HepG2, read-out: IC50 HepG-2
Experimental: as §3, §4

[11] = test system: Bacillus subtilis (RCMB 010067); assay: MIC by serial dilution method; conditions: RCMB010067, read-out: Minimum inhibitory concentration, MIC, B.S
Experimental: as §1

[12] = test system: Streptococcus pneumoniae (RCMB 010010); assay: MIC by serial dilution method; conditions: RCMB010010, read-out: Minimum inhibitory concentration, MIC, S.P
Experimental: as §1

[13] = test system: Escherichia coli (RCMB 010052); assay: MIC by serial dilution method; conditions: RCMB010052, read-out: Minimum inhibitory concentration, MIC, E.C
Experimental: as §1

[14] = test system: Bacillus subtilis (RCMB 010067); assay: Well diffusion assay (inhibition zone)
Experimental: as §2, §1

[15] = test system: Streptococcus pneumoniae (RCMB 010010); assay: Well diffusion assay (inhibition zone)
Experimental: as §2, §1

[16] = test system: Escherichia coli (RCMB 010052); assay: Well diffusion assay (inhibition zone)
Experimental: as §2, §1

[17] = test system: HCT-116, MCF-7, HEPG-2; assay: Cytotoxic screening, statements over the three cell lines; conditions: Homo sapiens, read-out: IC50, range over the three cell lines
Experimental: as §3, §4

[18] = RCMB05922, 5 mg/mL in DMSO, fungi, read-out: Inhibition Zone (IZ) diameter, S.R
[19] = RCMB02568, 5 mg/mL in DMSO, fungi, read-out: Inhibition Zone (IZ) diameter, A.F

`C[C@@H]1[C@H](O)[C@@H](C)/C=C/C=C/C=C/C=C/C=C/C=C/C=C/[C@H](O[C@@H]2O[C@H](C)[C@@H](O)[C@H](N)[C@@H]2O)C[C@@H]2O[C@](O)(C[C@@H](O)C[C@@H](O)[C@H](O)CC[C@@H](O)C[C@@H](O)CC(=O)O[C@H]1C)C[C@H](O)[C@H]2C(=O)O` [Amphotericin B, reference compound] was tested. Which MIC ([1]; RCMB05922, fungi, read-out: Minimum inhibitory concentration, MIC, S.R) did it give?
The MIC was 3.9 µg/mL (≈ 4.22 µM).

And the MIC ([2]; RCMB02568, fungi, read-out: Minimum inhibitory concentration, MIC, A.F)?
Its MIC is 0.24 µg/mL (≈ 0.26 µM).

What about the MIC ([3]; fungi) of the same compound?
The MIC was 0.015 µg/mL (≈ 0.0162 µM).

What about the zone of inhibition at 5000 µg/mL [4, 18] of the same compound?
Its zone of inhibition at 5000 µg/mL is 19.7 mm.

And the zone of inhibition at 5000 µg/mL [5, 19]?
Its zone of inhibition at 5000 µg/mL is 23.7 mm.

And the zone of inhibition at 5000 µg/mL ([6]; 5 mg/mL in DMSO, fungi)?
The zone of inhibition at 5000 µg/mL was 28.7 mm.

And the zone of inhibition at 5000 µg/mL [7]?
The zone of inhibition at 5000 µg/mL was 25.4 mm.

`Nc1cc2ccccc2cc1O` [compound 1, 3-amino-2-naphthol] was tested. Which IC50 ([8]; Homo sapiens, HCT-116, read-out: IC50 HCT-116) did it give?
The IC50 was 218 µg/mL (≈ 1370 µM).

What about the IC50 ([9]; Homo sapiens, MCF7, read-out: IC50 MCF-7) of the same compound?
The IC50 was 230 µg/mL (≈ 1440 µM).

And the IC50 [10]?
The IC50 was 60.5 µg/mL (≈ 380 µM).

What about the MIC ([1]; RCMB05922, read-out: Minimum inhibitory concentration, MIC, S.R) of the same compound?
Its MIC is 7.81 µg/mL (≈ 49.1 µM).

And the MIC [11]?
Its MIC is 31.2 µg/mL (≈ 196 µM).

What about the MIC ([2]; RCMB02568, read-out: Minimum inhibitory concentration, MIC, A.F) of the same compound?
Its MIC is 15.6 µg/mL (≈ 98.2 µM).

What about the MIC [3] of the same compound?
Its MIC is 62.5 µg/mL (≈ 393 µM).

And the MIC [12]?
Its MIC is 15.6 µg/mL (≈ 98.1 µM).

What about the MIC [13] of the same compound?
The MIC was 7.8 µg/mL (≈ 49 µM).

What about the zone of inhibition at 5000 µg/mL ([4]; RCMB05922, read-out: Inhibition Zone (IZ) diameter, S.R) of the same compound?
Its zone of inhibition at 5000 µg/mL is 14.3 mm.

And the zone of inhibition at 5000 µg/mL ([14]; RCMB010067, read-out: Inhibition Zone (IZ) diameter, B.S)?
Its zone of inhibition at 5000 µg/mL is 17.8 mm.

What about the zone of inhibition at 5000 µg/mL ([5]; RCMB02568, read-out: Inhibition Zone (IZ) diameter, A.F) of the same compound?
The zone of inhibition at 5000 µg/mL was 16.6 mm.

What about the zone of inhibition at 5000 µg/mL [6] of the same compound?
Its zone of inhibition at 5000 µg/mL is 19.2 mm.

What about the zone of inhibition at 5000 µg/mL ([15]; RCMB010010, read-out: Inhibition Zone (IZ) diameter, S.P) of the same compound?
The zone of inhibition at 5000 µg/mL was 15.9 mm.

And the zone of inhibition at 5000 µg/mL ([16]; RCMB010052, read-out: Inhibition Zone (IZ) diameter, E.C)?
The zone of inhibition at 5000 µg/mL was 15.5 mm.

And the IC50 [17]?
Its IC50 is 60 to 230 µg/mL (≈ 377 to 1440 µM).

`Nc1cccc2c(O)cccc12` [compound 5, 5-amino-1-naphthol] was tested. Which IC50 ([8]; Homo sapiens, HCT-116; read-out: IC50 HCT-116) did it give?
The IC50 was 11.5 µg/mL (≈ 72.2 µM).

What about the IC50 ([9]; Homo sapiens, MCF7; read-out: IC50 MCF-7) of the same compound?
The IC50 was 8.88 µg/mL (≈ 55.8 µM).

And the IC50 [10]?
The IC50 was 15.2 µg/mL (≈ 95.5 µM).

What about the zone of inhibition at 5000 µg/mL [4, 18] of the same compound?
The zone of inhibition at 5000 µg/mL was 14.5 mm.

What about the zone of inhibition at 5000 µg/mL ([14]; RCMB010067, 5 mg/mL in DMSO, Gm+ve, read-out: Inhibition Zone (IZ) diameter, B.S) of the same compound?
Its zone of inhibition at 5000 µg/mL is 18.9 mm.

What about the zone of inhibition at 5000 µg/mL [5, 19] of the same compound?
Its zone of inhibition at 5000 µg/mL is 18.3 mm.

What about the zone of inhibition at 5000 µg/mL ([6]; 5 mg/mL in DMSO, fungi) of the same compound?
The zone of inhibition at 5000 µg/mL was 19.5 mm.

And the zone of inhibition at 5000 µg/mL ([15]; RCMB010010, 5 mg/mL in DMSO, Gm+ve, read-out: Inhibition Zone (IZ) diameter, S.P)?
The zone of inhibition at 5000 µg/mL was 16.3 mm.

And the zone of inhibition at 5000 µg/mL ([16]; RCMB010052, 5 mg/mL in DMSO, Gm-ve, read-out: Inhibition Zone (IZ) diameter, E.C)?
Its zone of inhibition at 5000 µg/mL is 17.2 mm.

What about the IC50 ([17]; HCT-116, MCF-7, HEPG-2 together) of the same compound?
The IC50 was 9 to 15 µg/mL (≈ 56.5 to 94.2 µM).
